Entries after “also recorded” stand apart in the source; their conditions may differ.

For data set [1], the system named is mice exposed to total body irradiation. Kind of data set: Survival of mice after total body irradiation. It counts as in vivo, mouse. How it is done:
Mice received intraperitoneal injection of 10 mg. per kilogram of each of the chemicals indicated in FIG. 5, then 24 hours later received 9.75 Gy total body irradiation according to published methods. Mice were followed for survival according to IACUC regulations. […] (P=0.0008).
Groups of 15 mice received intraperitoneal injection of 10 mg. per kilogram of each indicated GS-nitroxide compound or carrier (Cremphora plus alcohol at 1 to 1 ratio, then diluted 1 to 10 in distilled water). Mice received 10 mg per kilogram intra-peritoneal injection 24 hours prior to total body irradiation. Control mice received radiation alone. […] (P=0.0005)
C57BL/6NHsd female mice were irradiated to 9.5 Gy whole body irradiation. At 10 min, 30 min, 1 hr, 4 hr, or 8 hr after irradiation, the mice were injected intraperitoneally with JP4-039 (10 mg/kg). The mice were followed for the development of the irradiation induced hematopoietic syndrome.
Mice were irradiated to 9.5 Gy and injected IP 10 minutes later with concentration of JP-4-039 ranging from 0.5 mg/kg to 10 mg/kg. The mice were followed for developments of the hematopoietic syndrome. The optimal dose of JP4-039 providing the best irradiation protection is 5 mg/kg.

Data set [2] deals with MEF cells from Ercc1−/− mouse embryos. Kind of data set: Toxicity of JP4-039 in Ercc1−/− MEF cultures. It counts as cell-based. Conditions: up to 10 μM. How it is done: To assess the therapeutic potential of JP4-039, tests for safety and protective activity were performed. FIGS. 35 and 36 show the results of tests to evaluate whether varying concentrations of JP4-039 produce toxic effects after 48 hours in cultures of MEF cells prepared from Ercc1^−/− or wild-type mouse embryos, respectively.

The subject of another data set is caspases 3 and 7. In words: Caspases 3 and 7 activity in gut mucosa after hemorrhagic shock. In kind it is in vivo, rat. The settings on record: 10 μM intraluminal, vs vehicle. How it is done:
Caspases 3 and 7 activity assay. Caspases 3 and 7 activity was measured using a commercially available assay kit, Caspase GIo™ 3/7 assay kit (Promega, Madison, Wis.). Briefly, 50 μl of rat gut mucosa homogenate (20 jug protein) was mixed with 50 μl of Caspase-Glo™ reagent and incubated at room temperature for 1 hour. At the end of incubation period, the luminescence of each sample was measured using a plate reading chemiluminometer (ML1000, Dynatech Laboratories, Horsham, Pa.). Activity of caspases 3 and 7 was expressed as luminescence intensity (arbitrary units per mg protein). Protein concentrations were determined using the BioRad assay (Bio-Rad Laboratories, Inc., Hercules, Calif.).
In the subsequent series of in vivo studies, the affect of intraluminal XJB-5-131 on hemorrhage-induced peroxidation of phospholipids in intestinal mucosa was examined. […] In a preferred embodiment, 0.3 mL of test solution filled the lumen of each ileal compartment.
After two hours of HS, samples of ileal mucosa from the gut sacs filled with the vehicle and XJB-5-131 were obtained and compared with ileal mucosa of normal MECs. All samples were assayed with caspase 3 or caspase 7 activity as well as the peroxidation of phosphatidylcholine (“PC”), phosphatidylethanolamine (“PE”), phosphatidylserine (“PS”), and cardiolipin (“CL”), summarized in FIG. 7.

For `CC(C)C[C@@H](/C=C/CC(=O)NC1CC(C)(C)N([O])C(C)(C)C1)NC(=O)OC(C)(C)C` [JP4-039, TEMPO-4-yl-(S,E)-5-(tert-butoxycarbonylamino)-7-methyloct-3-enamide], the survival of mice result in data set [1] (9.5 Gy TBI, 10 mg/kg ip 24 hours prior) is reported as “increases survival”; in data set [1] (9.75 Gy TBI, 10 mg/kg ip 24 hours before), “significant increase in survival”. In data set [1] (9.5 Gy, 10 mg/kg ip after irradiation), the “optimal time of delivery for radiation mitigation” value worked out at 1 h. For the same molecule, the “optimal dose providing the best irradiation protection” value in data set [1] (9.5 Gy, IP 10 minutes after irradiation) was determined as 5 mg/kg. Moreover, the “cellular proliferation relative to untreated control cells” value in data set [2] (Ercc1−/− or wild-type MEF) was “enhanced”. For the same molecule, the toxicity result in data set [2] (48 hours) is given as “no signs of toxicity; also recorded: not toxic”.
As to `CC(C)C[C@@H](/C=C/[C@H](Cc1ccccc1)C(=O)N1CCC[C@H]1C(=O)N[C@H](C(=O)N[C@@H](CCCNC(=O)OCc1ccccc1)C(=O)NC1CC(C)(C)N([O])C(C)(C)C1)C(C)C)NC(=O)OC(C)(C)C` [XJB-5-131], the “caspase 3 and 7 activity after hemorrhagic shock” value with caspases 3 and 7 is “significantly decreased”.

Values taken from US8822541B2, “Use of targeted nitroxide agents in mitigating or treating radiation injury” (University of Pittsburgh—Of the Commonwealth System of …, priority 2008, dated 2014).
